The source of these data is a melting point compilation (Tetko et al.; mined from patent text by program, amines drawn as free bases though some values may be those of a salt).

The term melting point denotes the temperature, or range, at which the solid turns liquid.

Structures are written as SMILES.

`NC(=O)c1nc(Cl)n2c1CN=C(c1ccccc1Cl)c1cc(Cl)ccc1-2`: the melting point was in the range of 285 to 288 °C.
For `CC(C)(Cc1cc(F)cc(F)c1)NCC(O)c1cc(OCc2ccccc2)cc2c1OCC(=O)N2` (stereo unspecified), the melting point was 150 to 158 °C.
The figure for `O=C(O)Cn1c(=O)n(Cc2ccccc2)c2ccccc21` is 200 to 202 °C.
On to `COc1ccc2cc3c(=O)c(C#N)c[nH]c3cc2c1`, for which the melting point is above 265 °C.
As for `CON1C=C2N=NC3=C(N2C1)N(c1ccccn1)CC(C)=C3`, the melting point lay within 216 to 220 °C.
The figure for `CC(C)c1ccc(S(=O)(=O)O)cc1` is 35.2 to 36.7 °C; for `Cc1cccc(-c2nc3ccccn3c2-c2ccnc(-c3ccc(C(=O)NC4CCOCC4)cc3)c2)n1` it is 128 °C; for `CC(NC(=S)NC(COC(=O)C(C)(C)C)Cc1ccccc1)c1ccc([N+](=O)[O-])cc1` (stereo unspecified) it is 99 to 100 °C.
`O=C(C=Cc1ccc(CNCC2CCCCC2O)cc1)Nc1ccc(-c2ccc(Cl)cc2)cc1` (stereo unspecified) gave a melting point of 210 to 211 °C.
Consider `CNc1cc(N2CCN(C(=O)C3CCN(S(=O)(=O)c4ccc(C(F)(F)F)cc4)CC3)CC2)ncn1`, for which the melting point lay in the range of 237 to 238 °C.
As to `Cc1cc(Nc2nccc(-c3sc(CO)nc3C)n2)ccc1N1CCCCC1`, the melting point was in the range of 142 to 144 °C.
The figure for `CCN1C(=O)CCCc2c1ccc(Nc1ncc(Cl)c(Nc3ccc(N4CCN(C)CC4)cc3OC)n1)c2OC` is 186 to 187 °C; for `CC(C)(C)c1ccc(Sc2cccc3c2C(=O)c2c(Sc4ccc(C(C)(C)C)cc4)ccc(Sc4ccc(C(C)(C)C)cc4)c2C3=O)cc1` it is 228 to 229 °C; for `COc1cc(C(=O)c2ccc(C(F)(F)F)cc2)cc(C#N)c1OC` it is 130 °C.
The figure for `CN(C)CCNS(=O)(=O)c1cc(NC(=O)c2cnn3c(C(F)(F)F)cc(-c4ccc(C(F)(F)F)cc4)nc23)c(Cl)s1` is 198 °C; for `CCC(O)(C#CC(=O)c1ccc(SC)cc1)CC` it is 49 to 50 °C; for `NS(=O)(=O)c1ccc(-c2ccc(F)cc2F)cc1` it is 143 °C.
`CCC(=O)c1ccc(-c2ccc(Cl)cc2)o1` gave a melting point of 66 to 68 °C.
Compound `CC(=O)c1c(C)[nH]c(-c2ccc(Cl)cc2)c1N` gave a melting point of 205 to 208 °C.
Compound `CC(C)(CC(O)(C(=O)Nc1ccc2c(c1Br)COC2=O)C(F)(F)F)c1ccccc1` (stereo unspecified) gave a melting point of 187 to 194 °C.
The figure for `O=C(O)C1CCNC2CCCCC21` (stereo unspecified) is above 300 °C; for `COCCCCCCCCCCCC(=O)O` it is 45 to 47 °C; for `COCc1nc2c(N)nc3cc(CCC(=O)N4CCS(=O)(=O)CC4)ccc3c2n1CC(C)(C)O` it is 190 to 192 °C.
The figure for `CCCCC(=O)Nc1c(C)c(C)c2c(c1C)C(c1ccc(C)cc1)C(C)(C)O2` (stereo unspecified) is 156 to 157 °C; for `O=C(Nc1nc(-c2ccco2)c(C(=O)c2cc[nH]c2)s1)c1ccncc1` it is 259 to 260 °C; for `COC(=O)c1ccc(C(=O)Nc2ccccc2)cc1` it is 189 to 190 °C.
The figure for `COC[C@@H]1CN(c2ccc(OCc3ccccc3)cc2)C(=O)O1` is 101 °C; for `CC#CCOc1cc(N(C)c2cccc(F)c2F)ncn1` it is 77.5 °C; for `COc1ccc(CCNS(=O)(=O)c2ccc(N)cc2)cc1` it is 144 to 146 °C.
The compound `Clc1ccc(C2=NOCCS2)cc1` had a melting point of 80.5 to 81.5 °C.
The figure for `COC1c2ccccc2C(c2ccc([N+](=O)[O-])cc2)=NN(c2nc(=O)n(C)s2)C1(C)OC` (stereo unspecified) is 262 to 263 °C; for `S=C1Nc2ccccc2Sc2ccccc21` it is 245 to 246 °C.
For the compound `CCc1sc(N)nc1-c1cc(Br)no1`, the melting point was 151 to 152 °C.
The figure for `N#Cc1nn(-c2c(Cl)cc(C(F)(F)F)cc2Cl)c(N)c1-c1ccoc1` is 180 to 181 °C.
The figure for `Cc1cc(N(C)C(=O)OC(C)(C)C)c(C)c(C)c1O` is 163 to 166 °C.
For the compound `CCCOCC1(c2onc(-c3ccc(O)cc3)c2-c2ccccc2)CC1`, the melting point fell in the range of 111 to 112 °C.
`C=NOC(C(=O)O)c1cccc(NC(=O)NCC(=O)N2C(c3ccccc3)CCC2c2ccccc2)c1` (stereo unspecified) gave a melting point of 194 °C.
The figure for `CCNc1nc(C#N)c(C#N)nc1-c1cccc(F)c1` is 126 to 127 °C; for `CC(=O)SCC(Cc1ccccc1)C(=O)NN1CCSCC1` (stereo unspecified) it is 138 °C.
The figure for `CC1COc2c(F)c(F)cc(C(=O)O)c2N1` (stereo unspecified) is 200 to 202 °C.
The figure for `N#Cc1c(C(F)(F)C(F)(F)F)nn(-c2c(Cl)cc(C(F)(F)F)cc2Cl)c1N` is 160 to 162 °C.
Turning to `COc1ccc(-c2cc(C(F)(F)F)ccc2/C=C/C(=O)Nc2ccc3[nH]ccc3c2)cn1`, the melting point lay within 219 to 221 °C.
The figure for `CC1(C(=O)C(C(O)C(Cl)(Cl)CCl)n2cncn2)CC1` (stereo unspecified) is 182 to 186 °C; for `CCCCCCCCCCc1cc(C=O)on1` it is 46 to 48 °C.
For `COc1ccc(OC)c(Cc2ccc3[nH]c(=S)[nH]c3c2)c1`, the melting point was 210 to 211 °C.
The figure for `COc1c(C)c(OC(=O)c2c(C)c(C)c(OCCCN3C(=O)c4ccccc4S3(O)O)c(C)c2OC)c(C)c(C)c1C(=O)O` is 222 to 223 °C; for `c1ccc2c(CSCc3cccc4ccccc34)cccc2c1` it is 104 to 106 °C; for `CC1COc2c(ccc(F)c2F)N1C(=O)C=NO` (stereo unspecified) it is 188 to 190 °C.
Compound `O=C=Nc1c(F)cc(Cl)c2nc(Cl)sc12` showed a melting point of 95 to 98 °C.
The figure for `c1ccc(-c2n[nH]c3c2sc2ccccc23)cc1` is 236 to 238 °C; for `O=C(CCCC(=O)c1ccccc1)NC1CCN(Cc2ccc(Cl)c(Cl)c2)CC1` it is 130 °C; for `CCc1ccc(-c2c3ccccc3c(-c3ccc(CC)cc3)c3cc(Cl)ccc23)cc1` it is 214 to 216 °C.
The figure for `CCC(OC)(c1cccc(O)c1)c1nccs1` (stereo unspecified) is 101 to 103 °C; for `Cc1cc(O)cc(C)c1Sc1ccccn1` it is 190 °C.
The figure for `O=S(=O)(Nc1ccccc1O)c1cc(S(=O)(=O)Nc2ccccc2O)c2cc(O)ccc2c1` is 118 to 120 °C; for `CCc1cccc(Nc2ncnc3cc(OCCOC)c(OCCOC)cc23)c1` it is 72 to 74 °C; for `COC(=O)c1cc(C(=O)O)ccc1N` it is 224 °C.
In turn, `CCCCCCC(=NO)C(=O)c1ccc(OC)c2ccccc12` had a melting point of 92 to 93 °C.
The figure for `CCOC(=O)CCc1ccc(N2CCN(c3ccc(C(=N)NC(=O)OCC)cc3)C2=O)cc1` is above 335 °C.
The figure for `CCOC(C#N)NC(=O)c1cccc(OC)c1` (stereo unspecified) is 72 °C; for `O=C(C=Cc1cc(O)c(O)c([N+](=O)[O-])c1)c1ccccc1O` it is 231 to 234 °C; for `Cc1ccc(C(=O)Oc2cc(O)ccn2)cc1` it is 120 to 127 °C.
The figure for `O=C1Nc2cccc(Cl)c2C(=O)N2C=CC[C@@H]12` is 249 to 251 °C; for `CC(C)(C)OC(=O)NC(Cc1ccccc1)C(O)CNCC(O)C(Cc1ccccc1)NC(=O)SC(C)(C)C` (stereo unspecified) it is 140 to 141 °C; for `Cc1cc([Si](C)(C)C)c(C)cc1[Si](C)(C)C` it is 56 to 57.5 °C.
The compound `CC(CCc1cccc(Cl)c1)NC(=O)n1nc(N(C)C)n(N)c1=O` (stereo unspecified) came in with a melting point of 74 °C.
`CCC(O)Cn1c(Cl)nc2ccccc21` (stereo unspecified) had a melting point of 126 °C.
The figure for `CC(C)(C#N)c1ccc2nc(O)nnc2c1` is 183 to 185 °C; for `O=C(CCc1ccccc1)Nc1cc(C(=O)O)ccn1` it is 266 to 267 °C.
In turn, `CC1C(=O)Nc2cccc3c2N1C(=O)C3c1ccccc1` (stereo unspecified) came in with a melting point of 208 to 211 °C.
The figure for `Cn1nc(-c2ccc(Cl)c(Cl)c2)c2ccccc2c1=O` is 179 to 181 °C; for `Cc1ccc(=Nc2nnc(C(F)(F)F)s2)n(-c2cccc(C(F)(F)F)c2)c1` it is 179 °C; for `C=Cc1cccc2ccc(O)nc12` it is 96 °C.
`COC(=O)c1c(C)n(-c2ccccc2)c(C)c(C(=O)OC)c1=O` returned a melting point of 215 °C.
As to `CS(=O)(=O)c1ccc(Cl)cc1Cl`, the melting point turned out to be 71 °C.
The figure for `OCc1ccc(-c2ccc(OCc3ccccc3)cc2)cc1` is 194 to 195 °C; for `NC(=S)NN=C(CCCCl)c1cccs1` it is 120 to 122 °C; for `O=C1COC(c2cccc(Cl)c2)c2cc(C3(c4ccc(Cl)cc4)OCCO3)ccc2N1` (stereo unspecified) it is 205 °C.
The figure for `COc1ccc(NC(N)=S)c(N2CCOCC2)c1` is 175 °C; for `COc1cc(Nc2c(C#N)cnc3cc(OCC(C)(C)CN(C)C)c(OC)cc23)c(Cl)cc1Cl` it is 178 to 180 °C.
The compound `Nc1c(Nc2cccc(-c3ccncc3)n2)c(=O)c1=O` gave a melting point above 340 °C.
The figure for `CC(C)n1cc(C(=O)NCc2ccc(Cl)cc2)c(=O)c2cc(CCCO)sc21` is 84 to 92 °C; for `CC(C)(C)OC(=O)NN=Cc1ccccc1` it is 184 to 186 °C.
The figure for `O=c1[nH][nH]c(=O)n1-c1cc(Cl)cc(Cl)c1` is 260 °C; for `Cn1cncc1C(C)(c1ccc(Cl)cc1)c1ccc2c(c1)c(-c1cccc(Cl)c1)cc(=O)n2C` (stereo unspecified) it is 204 °C; for `O=C1C(N2CCOCC2)=CCCN1c1ccc(I)cc1` it is 138 to 148 °C.
The figure for `Oc1ncnc2c(-c3ccc(Cc4ccccc4)cc3)cnn12` is 300 to 303 °C; for `Cc1coc2c1C(=O)CC(c1ccc(F)cc1F)C2` (stereo unspecified) it is 101 to 102 °C; for `O=S(=O)(NCCO)c1cccc(-c2cccc(-c3nc(-c4ccc(C(F)(F)F)cc4)cc(C(F)(F)F)n3)c2)c1` it is 153 °C.
Take `CCC(=O)Nc1cc(-c2sc(C(C)=O)nc2-c2cccc(C)c2)ccn1`: the melting point is 121 to 123 °C.
The figure for `N#CC1=C(C#N)Sc2nc3cc(C#N)ccc3nc2S1` is 218 to 220 °C.
